Data published in US11723894B2, “Combination product for the treatment of neurological and/or psychiatric disorders” (Consejo Superior de Investigaciones Cientificas (CSIC), priority 2017, dated 2023).

Columns and labels:
[1] = test system: dopaminergic neurons of the Substantia nigra pars compacta; assay: 6-OHDA in vivo model of Parkinson's Disease (injection into Substantia nigra pars compacta); set-up: species or system C57BL/6 mice; conditions: 0.1 μg DMT co-injected with 5 μg 6-OHDA into SNpc, 3 weeks
Method: Example 10: DMT administration prevents dopaminergic cell death in a in vivo model of Parkinson's disease. Adult male C57BL/6 mice (8-12 weeks old) were used in this study. Animals were properly anaesthetized and placed in a stereotaxic apparatus (Kopf Instruments, CA). 6-OHDA (5 μg in […] PBS) was injected into the right side of the Substantia nigra pars compacta (SNpc) (coordinates from Bregma: posterior −3.2 mm; lateral +2.0 mm; ventral: +4.7 mm, according to the atlas of Paxinos and Franklin, The Mouse Brain in Stereotaxic Coordinates. 4. San Diego: Academic Press; 2012). Control animals of the same age were injected with PBS. A third group received an injection with 6-OHDA (5 μg) combined with DMT (0.1 μg) in […] PBS. Mice were then housed individually to recover and sacrificed 3 weeks later. At this point animals were anaesthetized and perfused transcardially with a 4% paraformaldehyde solution. The brains were removed, postfixed in the same solution at 4° C. overnight, cryoprotected in 20% sucrose, frozen, and 30 μm coronal sections were obtained in a cryostat. Free-floating sections were processed for double fluorescent immunohistochemistry. […] Neuronal integrity and specifically dopaminergic cell death was assessed by counting the percentage of TH^+ cells in the SNpc following a stereological approach. […] Images were analyzed using computer-assisted image analysis software (Soft Imaging System Corporation, Lakewood, Colo.). Results were expressed as the percentage of dopaminergic cell loss in the SNpc.

[2] = test system: Human SH-SY5Y dopaminergic cells; assay: 6-OHDA in vitro model of Parkinson's Disease, cell viability (MTT); type: cell-based; conditions: tryptamine 1 μM 1 h, then 6-OHDA 30 μM 24 h
From the text: Example 9: DMT, DET, DPT and 5-MeO-DMT prevent dopaminergic cell death and inflammation (Only Measured for DMT) caused by the potent and selective dopaminergic toxin 6-OHDA in an in vitro model of Parkinson's Disease. These desired effects are preserved in the presence of the 5-HT2A antagonist Ritanserin (Rit). The Human SH-SY5Y dopaminergic cell line was obtained from Sigma-Aldrich, cultured in 96-well plates and propagated in RPMI medium containing glutamine (1%) and 15% of fetal bovine serum (FBS) plus antibiotic (gentamicin), under humidified 5% CO2 and 95% air. On attaining semiconfluence, separate groups of cells were treated with either: a) one of the four hallucinogenic tryptamines at 1 μM for 1 h, followed by 6-OHDA at 30 μM for 24 hours; or b) Rit at 1 μM for 1h, followed one of the four hallucinogenic tryptamines at 1 μM for an additional hour, at which point 6-OHDA was administered, also at 30 μM, and kept for 24 hours. Vehicle-treated cultures were used as controls. Cell cultures were then processed to assess cell viability (for all four tryptamines) and quantification of nitrite concentration (only performed in the DMT and DMT+Rit tests). Cell viability was measured using the MTT assay (Roche Diagnostic, GmbH), which is based on the ability of viable cells to reduce yellow MTT to blue formazan. After the aforementioned 24 h period in the presence of the different tryptamines or the respective tryptamine+Rit combinations, cells were incubated with MTT (0.5 mg/ml, 4 h) and subsequently solubilized in 10% SDS/0.01 M HCl for 12 h in the dark. The extent of MTT reduction was quantified by absorbance measurement at the 595 nm wavelength, as indicated in the instructions provided by the manufacturer. Nitrite quantification: Due to access to equipment problems at the time the experiments with DET, DPT and 5-MeO-DMT were conducted, the assessment of nitrite levels in the medium could only be done for the DMT experiments. These determinations were carried out as described in Example 8. Results from the cell viability tests are expressed as the percentage of viable dopaminergic cells measured. Results from nitrite determinations are expressed as actual concentrations (μM). Results from both techniques are presented in bar graphs.

[3] = test system: subgranular zone of the hippocampus; assay: Long-term (21 days) in vivo neurogenesis in the subgranular zone of the hippocampus (BrdU/NeuN, BrdU/DCX); set-up: species or system C57BL/6 mice
Method: Adult male C57BL/6 mice (obtained from Charles River Labs, Barcelona, Spain) were injected every other day for 3 weeks with DMT (0.1 μg/animal), alone or in combination with the selective Sigma-1 BD1063 antagonist (BD, 0.2 μg/animal, Sigma, Catalog number SML0276), the mixed 5-HT2A/1A receptor antagonist methiothepin (Met, 0.2 μg/animal, Sigma, Catalog number M149), or the selective 5-HT1A receptor antagonist WAY100635 (WAY, 0.2 μg/animal, ABCAM catalog number ab120550). On day 1 of treatment, animals were intraperitoneally injected with the proliferation marker 5-bromo-2-deoxyuridine (BrdU, 50 mg/kg, Sigma, Catalog number B5002) and sacrificed on day 21. Following anesthesia, the animals were perfused transcardially with 4% paraformaldehyde, and the brains obtained and post-fixed in the same solution at 4-8° C. overnight. They were subsequently cryoprotected, frozen, and finally cut into 30 μm coronal sections in a cryostat. Free-floating sections were immunostained using immunofluorescence analysis. For BrdU detection, samples were first incubated with 2 M HCl for 30 minutes at 37° C. before blocking 1 hour in PBS containing 5% normal serum, 0.1 M lysine, and 0.1% Triton X-100. Sections were then incubated with anti-BrdU mouse monoclonal antibody (DAKO, Barcelona, Spain, Catalog number M0744) combined with a neuronal marker, anti-neuN rabbit antibody (Abcam, Cambridge, UK. Catalog number ABN78) or an anti-double courtin (DCX) goat antibody (Santa Cruz Biotech. USA) at 4° C. overnight, washed three times and incubated with Alexa Fluor-488 goat anti-mouse and Alexa 647-goat anti-rabbit or -horse anti-goat secondary antibodies (Molecular Probes, Madrid, Spain), respectively, for 1 hour at room temperature. After rinses, sections were mounted with Vectashield.

CN(C)CCc1c[nH]c2ccccc12 [DMT, N,N-dimethyltryptamine]
average percentage of dopaminergic cell loss in the SNpc [1]: 10%
decrease in dopaminergic neurons and increase in activated astroglial and microglial cells (images) [1]: virtually absent
reduction in dopaminergic cell death in the presence of Ritanserin ([2]; Rit 1 μM 1 h): maintained
percentage of viable dopaminergic neurons ([2]; vs 6-OHDA alone): significant increases
double BrdU-NeuN stained cells (new neurons) ([3]; DMT 0.1 μg/animal every other day for 3 weeks, sacrificed day 21): increase
number of newly generated neurons as compared to basal ([3]; FIG. 6 legend, printed as after 5 days of DMT administration): doubled
